Active and inactive are the calls of the source. The rule behind the calls is not given here.
Legend:
RNA demethylase ALKBH5 [1] = biological target: RNA demethylase ALKBH5 (Homo sapiens, UniProt Q6P6C2, R130A); assay: Binding affinity to NT-647-NHS fluorescent dye-labeled ALKBH5 R130A mutant (unknown origin) expressed in Escherichia coli BL21(DE3) using m6A-ssDNA as substrate assessed as dissociation constant incubated for 15 mins by MST assay
RNA demethylase ALKBH5 [2] = biological target: RNA demethylase ALKBH5 (Homo sapiens, UniProt Q6P6C2, K132A); assay: Binding affinity to NT-647-NHS fluorescent dye-labeled ALKBH5 K132A mutant (unknown origin) expressed in Escherichia coli BL21(DE3) using m6A-ssDNA as substrate assessed as dissociation constant incubated for 15 mins by MST assay
Sequence of RNA demethylase ALKBH5 (Homo sapiens, UniProt Q6P6C2, K132A) (Q6P6C2 2-394 K132A limits assumed): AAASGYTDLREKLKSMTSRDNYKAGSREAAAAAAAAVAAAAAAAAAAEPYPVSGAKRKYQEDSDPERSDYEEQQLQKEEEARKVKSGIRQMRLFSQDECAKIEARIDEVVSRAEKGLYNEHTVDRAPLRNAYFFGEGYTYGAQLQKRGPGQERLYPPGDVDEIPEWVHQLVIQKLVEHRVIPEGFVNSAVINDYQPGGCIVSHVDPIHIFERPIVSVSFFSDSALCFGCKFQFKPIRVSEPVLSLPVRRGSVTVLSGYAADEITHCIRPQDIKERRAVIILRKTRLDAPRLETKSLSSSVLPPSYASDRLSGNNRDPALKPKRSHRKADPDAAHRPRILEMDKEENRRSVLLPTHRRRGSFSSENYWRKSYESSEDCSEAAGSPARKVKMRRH

RNA demethylase ALKBH5 [3] = biological target: T1, RNA demethylase ALKBH5 (Homo sapiens, UniProt Q6P6C2); assay: Inhibition of ALKBH5 (66 to 292 residues)(unknown origin) expressed in Escherichia coli BL21(DE3) using 5'-TAGACATTGCCATTCTCGATAGG(m6A)-TCCGGTCAAACCTAGACGAATTCCA-3' as substrate upto 100 uM incubated for 2 hrs in presence of 2-OG by restriction endonuclease digestion assay
T1 sequence (Q6P6C2 2-394 limits assumed): as the sequence (Q6P6C2 2-394 K132A limits assumed) above, with A131K counted along it

RNA demethylase ALKBH5 [4] = biological target: T1, RNA demethylase ALKBH5; assay: Inhibition of ALKBH5 in HEK293 cells assessed as increase in m6A RNA level at 10 to 40 uM by colorimetric assay; type: cell-based; details: dose 10-40 µM
RNA demethylase ALKBH5 [5] = biological target: T1, RNA demethylase ALKBH5; assay: Inhibition of ALKBH5 in human MV4-11 cells assessed as increase in m6A mRNA methylation level at 20 uM incubated for 48 hrs by LC-MS/MS analysis; type: cell-based
RNA demethylase ALKBH5 [6] = biological target: T1, RNA demethylase ALKBH5; assay: Inhibition of ALKBH5 in human MOLM-13 cells assessed as increase in m6A mRNA methylation level at 20 uM incubated for 48 hrs by LC-MS/MS analysis; type: cell-based
HEK293 [7] = assay: Antiproliferative activity against HEK293 cells assessed as inhibition of cell proliferation incubated for 72 hrs by Cell Titer Luminescence assay; type: functional, cell-based; details: Homo sapiens, HEK293, 72 h
MV4-11 [8] = assay: Induction of cell cycle arrest at […] phase in human MV4-11 cells at 20 uM incubated for 48 hrs by […]PI staining based flow cytometry; type: functional
MV4-11 [9] = assay: Induction of apoptosis in human MV4-11 cells assessed as viable cells at 10 uM incubated for 48 hrs by Annexin V-FITC/PI staining based flow cytometry (reference value: 89.8 %); type: functional; details: read-out: Activity
MV4-11 [10] = assay: Induction of apoptosis in human MV4-11 cells assessed as necrotic cells at 10 uM incubated for 48 hrs by Annexin V-FITC/PI staining based flow cytometry (reference value: 1.81 %); type: functional
MOLM-13 [11] = assay: Induction of apoptosis in human MOLM-13 cells assessed as viable cells at 5 uM incubated for 48 hrs by Annexin V-FITC/PI staining based flow cytometry (reference value: 89.8 %); type: functional; details: read-out: Activity
MOLM-13 [12] = assay: Induction of apoptosis in human MOLM-13 cells assessed as late apoptosis cells at 5 uM incubated for 48 hrs by Annexin V-FITC/PI staining based flow cytometry (reference value: 6.49 %); type: functional
MOLM-13 [13] = assay: Induction of apoptosis in human MOLM-13 cells assessed as necrotic cells at 5 uM incubated for 48 hrs by Annexin V-FITC/PI staining based flow cytometry (reference value: 1.00 %); type: functional
MOLM-13 [14] = assay: Induction of apoptosis in human MOLM-13 cells assessed as late apoptosis cells at 10 uM incubated for 48 hrs by Annexin V-FITC/PI staining based flow cytometry (reference value: 6.49 %); type: functional
MOLM-13 [15] = assay: Downregulation of TACC3 mRNA level in human MOLM-13 cells assessed as half life of expression at 20 umol/L incubated for 24 hrs by qRT-PCR analysis (reference value: 2.87 hrs); type: functional, cell-based; details: dose 20.0 µmol/L
MOLM-13 [16] = assay: Downregulation of TACC3 mRNA level in human MOLM-13 cells at 5 to 10 uM incubated for 48 hrs by qRT-PCR analysis; type: functional, cell-based; details: dose 5-10 µM
MV4-11 [17] = assay: Downregulation of TACC3 mRNA level in human MV4-11 cells at 5 to 10 uM incubated for 48 hrs by qRT-PCR analysis; type: functional, cell-based; details: dose 5-10 µM
HUVEC [18] = assay: Effect on TACC3 mRNA level in HUVEC cells at 5 to 10 uM incubated for 48 hrs by qRT-PCR analysis; type: functional, cell-based; details: Homo sapiens, dose 5-10 µM
HUVEC [19] = assay: Effect on TACC3 level in HUVEC cells upto 10 uM incubated for 48 hrs by Western blot analysis; type: functional, cell-based; details: Homo sapiens
HEK293 [20] = assay: Effect on c-Myc level in HEK293 cells upto 10 uM incubated for 48 hrs by Western blot analysis; type: functional, cell-based; details: Homo sapiens
[21] = Metabolic stability in rat liver microsomes assessed as half life measured upto 240 mins by LC-MS/MS analysis; type: ADME, Microsome
[22] = Metabolic stability in rat liver microsomes assessed as clearance measured upto 240 mins by LC-MS/MS analysis; type: ADME, Microsome; details: read-out: CLH
[23] = AUC (0 to infinity) in Sprague-Dawley rat at 2 mg/kg, iv measured for 1 to 1440 mins by LC-MS/MS analysis; type: ADME, organism-based; details: in vivo
[24] = Apparent volume of distribution during terminal phase in Sprague-Dawley rat at 2 mg/kg, iv measured for 1 to 1440 mins by LC-MS/MS analysis; type: ADME, organism-based; details: in vivo, time 1-1440 min
[25] = Half life in Sprague-Dawley rat at 10 mg/kg, po measured for 1 to 1440 mins by LC-MS/MS analysis; type: ADME, organism-based; details: in vivo, time 1-1440 min
[26] = Cmax in Sprague-Dawley rat at 10 mg/kg, po measured for 1 to 1440 mins by LC-MS/MS analysis; type: ADME, organism-based; details: in vivo
[27] = Tmax in Sprague-Dawley rat at 10 mg/kg, po measured for 1 to 1440 mins by LC-MS/MS analysis; type: ADME, organism-based; details: in vivo, time 1-1440 min
[28] = Toxicity in nude mouse xenografted with human MV4-11 cells assessed as heart weight change at 10 to 40 mg/kg, ip treated every day for 14 days; type: organism-based; details: in vivo, 336 h, dose 10-40 mg/kg, time 14 day
[29] = Toxicity in nude mouse xenografted with human MV4-11 cells assessed as liver weight change at 10 to 40 mg/kg, ip treated every day for 14 days; type: organism-based; details: in vivo, 336 h, dose 10-40 mg/kg, time 14 day
[30] = Toxicity in nude mouse xenografted with human MV4-11 cells assessed as heart damage at 10 to 40 mg/kg, ip treated every day for 14 days by H and E staining based analysis; type: organism-based; details: in vivo, 336 h, dose 10-40 mg/kg, time 14 day
[31] = Toxicity in nude mouse xenografted with human MV4-11 cells assessed as liver damage at 10 to 40 mg/kg, ip treated every day for 14 days by H and E staining based analysis; type: organism-based; details: in vivo, 336 h, dose 10-40 mg/kg, time 14 day
[32] = Toxicity in nude mouse xenografted with human MV4-11 cells assessed as spleen damage at 10 to 40 mg/kg, ip treated every day for 14 days by H and E staining based analysis; type: organism-based; details: in vivo, 336 h, dose 10-40 mg/kg, time 14 day
[33] = Toxicity in nude mouse xenografted with human MV4-11 cells assessed as lung damage at 10 to 40 mg/kg, ip treated every day for 14 days by H and E staining based analysis; type: organism-based; details: in vivo, 336 h, dose 10-40 mg/kg, time 14 day
[34] = Toxicity in nude mouse xenografted with human MV4-11 cells assessed as kidney damage at 10 to 40 mg/kg, ip treated every day for 14 days by H and E staining based analysis; type: organism-based; details: in vivo, 336 h, dose 10-40 mg/kg, time 14 day

Sequence of RNA demethylase ALKBH5 (Homo sapiens, UniProt Q6P6C2, R130A) (Q6P6C2 2-394 R130A limits assumed): as the sequence (Q6P6C2 2-394 K132A limits assumed) above, with R129A, A131K counted along it

In the case of O=C(OCc1ccc(C(F)(F)F)cc1)c1ccc(-c2cc3ncc(C(=O)c4c(O)ccc([N+](=O)[O-])c4O)cn3n2)cc1, the Kd (RNA demethylase ALKBH5 [1]) is reported as 373 µM, the Kd (RNA demethylase ALKBH5 [2]) is reported as 53 µM and the inhibition (RNA demethylase ALKBH5 [3]) is reported as “Active”. The inhibition (RNA demethylase ALKBH5 [4]) was “Active”, the inhibition (RNA demethylase ALKBH5 [5]) was “Active” and the inhibition (RNA demethylase ALKBH5 [6]) was “Active”. The IC50 (HEK293 [7]) was 97.4 µM, the Activity (MV4-11 [8]) was “Active” and the viability at 10 µM (MV4-11 [9]) was 39.9%. The Activity (MV4-11 [10]) was 2.15%, the viability at 5 µM (MOLM-13 [11]) was 77.2% and the Activity (MOLM-13 [12]) was 16.5%. It also gave an Activity (MOLM-13 [13]) of 3.37%, an Activity (MOLM-13 [14]) of 31.5% and a T1/2 (MOLM-13 [15]) of 2.06 h. For the same compound, the Activity (MOLM-13 [16]) was “Active”, the Activity (MV4-11 [17]) was “Active” and the Activity (HUVEC [18]) was “inactive”. For the same compound, the Activity (HUVEC [19]) was “inactive”, the Activity (HEK293 [20]) was “inactive” and the half-life [21] was 0.23 h. It also gave a microsomal CLint [22] of 100 µL/min/mg, an AUC(0-inf) [23] of 6740 ng·h/mL and a Vz/F [24] of 0.2636 L/kg. For the same compound, the half-life [25] was 2.47 h, the Cmax [26] was 2340 ng/mL and the Tmax [27] was 0.5 h. For the same compound, the Activity [28] was “Non-Toxic”, the Activity [29] was “Non-Toxic” and the Activity [30] was “Non-Toxic”. For the same compound, the Activity [31] was “Non-Toxic”, the Activity [32] was “Non-Toxic” and the Activity [33] was “Non-Toxic”. The Activity [34] was “Non-Toxic”.

From ChEMBL document CHEMBL5375956, “Discovery of Pyrazolo[1,5-a]pyrimidine Derivative as a Novel and Selective ALKBH5 Inhibitor for the Treatment of AML” (J Med Chem, 2023)
